The Emax is the maximal effect, on the per cent scale that the assay sets.

Like-named read-outs stand apart in the source and are kept apart here.

What all share (type): biochemical
In test [1] the target is T1, Human recombinant PDE10A (hPDE10A) (Homo sapiens, UniProt Q9Y233).
T1 construct: His tag (inferred from metal chelate purification); made in house; host or cells: Sf9 insect cells (baculovirus)
Description: In vitro assay PDE10A, human clone (SPA, 3H-cAMP hydrolysis). In short, it runs like this: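 Hydrolysis of 3H-cAMP (60 nM cAMP, 0.008 μCi tracer) proceeded for 60 min at room temperature, with the product detected by SPA bead scintillation counting. The enzyme was hPDE10A from baculovirus-infected Sf9 cells in Tris pH 7.8 buffer with MgCl2 and EGTA, and compounds were at 1% DMSO final. Blanks lacked enzyme.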

For test [2], the target named is T2, Human recombinant PDE3A (hPDE3A) (Homo sapiens, UniProt Q14432).
T2 construct: purchased Scottish Biomedical; host or cells: Sf9 insect cells
Kind of test: In vitro assay PDE3A (SPA, 3H-cAMP hydrolysis).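 As to all read-outs here: the method names PDE3A and the table heading PDE3B.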 To be noted: for IC50: hPDE3B pIC50, read-out: pIC50 (converted); for Emax: read-out: hPDE3B Emax, read-out: Emax. The procedure, abridged: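 Radiometric SPA measuring [3H]-cAMP hydrolysis (0.4 μM cAMP, 2.4 μCi/ml) over 60 min at room temperature, in Tris pH 7.8 buffer with MgCl2 and EGTA, 1% DMSO. Enzyme: recombinant human brain PDE3A expressed in Sf9 cells, used as partially purified lysate. Counts compared with enzyme-free blanks and vehicle controls.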

The target of test [3] is T3, Human recombinant PDE2A (hPDE2A) (Homo sapiens, UniProt O00408).
T3 construct: His tag (inferred from metal chelate purification); made in house; host or cells: Sf9 insect cells (baculovirus)
Description: In vitro assay PDE2A (SPA, 3H-cGMP hydrolysis). The note with it: for Emax: read-out: hPDE2A Emax.

The mark [4] stands for this setting: human clone (h), default, read-out: hPDE10A2 Emax.
Setting [5] is: human clone (h), default, read-out: hPDE10A2 pIC50 (converted).
Setting [6] is: human recombinant PDE2A, 10 μM cGMP substrate, read-out: hPDE2A pIC50 (converted).
Where [7] appears, read: read-out: hPDE2A pIC50 (converted).
Where [8] appears, read: human clone by default (no (r) mark), read-out: hPDE10A2 or rPDE10A2 Emax.
Where [9] appears, read: human clone by default (no (r) mark), read-out: hPDE10A2 or rPDE10A2 pIC50 (converted).

T3 sequence (O00408 whole entry): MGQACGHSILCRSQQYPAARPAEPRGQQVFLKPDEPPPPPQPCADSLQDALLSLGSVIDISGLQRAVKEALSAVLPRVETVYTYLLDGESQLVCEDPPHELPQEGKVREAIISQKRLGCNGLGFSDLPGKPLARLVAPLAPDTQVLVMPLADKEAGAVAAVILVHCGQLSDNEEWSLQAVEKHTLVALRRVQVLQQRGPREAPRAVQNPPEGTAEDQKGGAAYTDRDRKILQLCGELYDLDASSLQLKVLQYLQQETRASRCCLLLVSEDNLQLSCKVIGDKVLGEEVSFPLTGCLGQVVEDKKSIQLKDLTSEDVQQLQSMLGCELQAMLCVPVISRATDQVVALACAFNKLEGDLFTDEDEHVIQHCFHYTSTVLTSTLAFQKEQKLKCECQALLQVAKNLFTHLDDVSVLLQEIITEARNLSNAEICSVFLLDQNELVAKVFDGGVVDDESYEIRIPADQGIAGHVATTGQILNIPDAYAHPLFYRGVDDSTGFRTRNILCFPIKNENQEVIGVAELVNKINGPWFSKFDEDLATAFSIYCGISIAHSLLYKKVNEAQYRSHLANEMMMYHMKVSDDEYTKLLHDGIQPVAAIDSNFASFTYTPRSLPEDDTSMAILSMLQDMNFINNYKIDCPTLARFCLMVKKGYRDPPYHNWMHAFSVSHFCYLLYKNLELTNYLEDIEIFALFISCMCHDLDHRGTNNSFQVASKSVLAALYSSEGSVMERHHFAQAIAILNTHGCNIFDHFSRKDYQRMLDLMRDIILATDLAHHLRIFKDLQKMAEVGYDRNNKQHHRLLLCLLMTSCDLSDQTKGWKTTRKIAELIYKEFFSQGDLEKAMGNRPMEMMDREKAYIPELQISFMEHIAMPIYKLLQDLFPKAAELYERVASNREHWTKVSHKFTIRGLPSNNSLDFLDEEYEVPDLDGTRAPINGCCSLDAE
T2 sequence (Q14432 whole entry): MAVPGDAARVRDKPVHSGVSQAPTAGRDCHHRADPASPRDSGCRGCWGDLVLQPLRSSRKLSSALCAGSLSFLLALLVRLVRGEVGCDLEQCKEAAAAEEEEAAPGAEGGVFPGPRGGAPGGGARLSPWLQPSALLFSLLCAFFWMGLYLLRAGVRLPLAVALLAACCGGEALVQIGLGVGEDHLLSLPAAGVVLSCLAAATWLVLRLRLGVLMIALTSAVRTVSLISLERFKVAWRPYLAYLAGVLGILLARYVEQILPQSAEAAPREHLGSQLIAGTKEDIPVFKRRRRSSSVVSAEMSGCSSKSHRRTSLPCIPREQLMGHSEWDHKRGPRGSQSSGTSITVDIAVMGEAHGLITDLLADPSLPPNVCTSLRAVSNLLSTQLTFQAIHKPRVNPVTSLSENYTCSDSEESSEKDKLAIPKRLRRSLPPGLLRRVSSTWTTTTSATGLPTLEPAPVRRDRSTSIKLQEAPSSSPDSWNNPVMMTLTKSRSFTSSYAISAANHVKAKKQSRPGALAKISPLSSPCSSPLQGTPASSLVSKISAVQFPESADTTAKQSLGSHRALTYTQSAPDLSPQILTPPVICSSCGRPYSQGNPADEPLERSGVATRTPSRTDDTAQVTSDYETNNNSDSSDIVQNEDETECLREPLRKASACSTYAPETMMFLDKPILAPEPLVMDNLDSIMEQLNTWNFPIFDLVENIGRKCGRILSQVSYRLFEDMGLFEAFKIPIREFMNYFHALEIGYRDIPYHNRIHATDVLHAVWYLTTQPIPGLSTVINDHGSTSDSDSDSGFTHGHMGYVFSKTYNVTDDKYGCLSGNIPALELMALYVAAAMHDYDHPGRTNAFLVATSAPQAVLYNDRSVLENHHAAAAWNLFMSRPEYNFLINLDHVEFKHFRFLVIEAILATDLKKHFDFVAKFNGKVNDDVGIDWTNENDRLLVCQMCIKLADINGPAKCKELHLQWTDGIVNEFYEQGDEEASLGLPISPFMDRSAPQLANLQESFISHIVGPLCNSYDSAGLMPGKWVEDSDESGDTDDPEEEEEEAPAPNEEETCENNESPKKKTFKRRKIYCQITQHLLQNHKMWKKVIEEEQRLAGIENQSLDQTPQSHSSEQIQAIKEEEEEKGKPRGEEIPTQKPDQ
T1 sequence (Q9Y233 267-1055): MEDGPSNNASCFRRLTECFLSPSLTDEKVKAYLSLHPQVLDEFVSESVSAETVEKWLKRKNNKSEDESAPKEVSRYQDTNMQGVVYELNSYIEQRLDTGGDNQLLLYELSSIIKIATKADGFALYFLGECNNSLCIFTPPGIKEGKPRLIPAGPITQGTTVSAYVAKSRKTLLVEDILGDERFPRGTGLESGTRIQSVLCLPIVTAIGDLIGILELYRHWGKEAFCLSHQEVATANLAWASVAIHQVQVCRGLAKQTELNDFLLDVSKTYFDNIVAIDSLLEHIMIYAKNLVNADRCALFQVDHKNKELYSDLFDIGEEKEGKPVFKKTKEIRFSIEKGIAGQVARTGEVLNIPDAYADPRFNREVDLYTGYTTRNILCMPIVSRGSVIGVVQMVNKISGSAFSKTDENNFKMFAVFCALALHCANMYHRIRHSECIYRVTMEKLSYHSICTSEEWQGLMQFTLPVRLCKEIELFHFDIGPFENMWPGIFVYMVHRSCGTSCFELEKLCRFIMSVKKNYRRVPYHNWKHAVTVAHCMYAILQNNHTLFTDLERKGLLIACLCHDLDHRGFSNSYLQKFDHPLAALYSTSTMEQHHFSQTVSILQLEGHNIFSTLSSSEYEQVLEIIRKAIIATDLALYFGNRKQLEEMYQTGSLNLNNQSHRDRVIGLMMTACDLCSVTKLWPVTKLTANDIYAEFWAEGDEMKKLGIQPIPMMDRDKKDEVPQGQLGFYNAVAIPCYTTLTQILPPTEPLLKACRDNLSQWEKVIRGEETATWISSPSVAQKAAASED

As to `C[C@@H]1CCN(C(=O)c2cnc(N(C)C)nc2)C[C@H]1c1cc(C(F)F)nc2ncnn12` [Compound 174], the Emax is 88% in test [1] (setting [4]), 85% in test [2], 99% in test [3] (human recombinant PDE2A) and 99% in test [3]. The IC50 is 575 nM in test [1] (setting [5]), 1320 nM in test [2], 5.25 nM in test [3] (setting [6]) and 5.25 nM in test [3] (setting [7]).
As to `C[C@@H]1CCN(C(=O)c2cccc(C(C)(C)C#N)c2)C[C@H]1c1cc(C(F)F)nc2ncnn12` [Compound 175], the Emax was found to be 98% in test [1] (setting [4]), 71% in test [2], 100% in test [3] (human recombinant PDE2A) and 100% in test [3]. For the same compound, the IC50 in test [1] (setting [5]) was 141 nM; in test [2], 6030 nM; in test [3] (setting [6]), 4.9 nM; in test [3] (setting [7]), 4.9 nM.
For `Cn1ncc2cc(C(=O)N3[C@H]4CC[C@H](c5cc(C(F)F)nc6ncnn56)[C@@H]3CC4)ccc21` [Compound 380], the Emax in test [1] (setting [8]) stood at 96%; in test [2], 72%; in test [3], 101%. Moreover, the IC50 in test [1] (setting [9]) is 363 nM; in test [2], 3980 nM; in test [3] (setting [7]), 5.5 nM.
Turning to `COc1cc(C(=O)N2[C@H]3CC[C@H](c4cc(C(F)F)nc5ncnn45)[C@@H]2CC3)ccc1F` [Compound 343], the Emax in test [1] (setting [8]) turned out to be 68%; in test [2], 44%; in test [3], 102%. Also, the IC50 is 4570 nM in test [1] (setting [9]), over 10000 nM in test [2] and 67.6 nM in test [3] (setting [7]).
Regarding `C[C@@H]1CCN(C(=O)c2ccncc2C(F)(F)F)C[C@H]1c1cc(C(F)F)nc2ncnn12` [Compound 239], the Emax in test [1] (setting [4]) amounted to 43%; in test [1] (setting [8]), 43%; in test [2], 16%; in test [3] (human recombinant PDE2A), 96%; in test [3] it was 96%. Moreover, the IC50 in test [1] (setting [5]) was over 10000 nM; in test [1] (setting [9]), over 10000 nM; in test [2], over 10000 nM; in test [3] (setting [6]), 191 nM; in test [3] (setting [7]), 191 nM.
Turning to `Cc1ccc2cc(C(=O)N3[C@H]4CC[C@H](c5cc(C(F)F)nc6ncnn56)[C@@H]3CC4)c(C)nc2c1` [Compound 298], the Emax in test [1] (setting [8]) was 47%; in test [2], 25%; in test [3], 99%. Further, the IC50 in test [1] (setting [9]) is over 10000 nM; in test [2], over 10000 nM; in test [3] (setting [7]) it was 18.6 nM.
On to `C[C@@H]1CCN(C(=O)c2ccc(Cl)cn2)C[C@H]1c1cc(C(F)F)nc2ncnn12` [Compound 154], for which the Emax in test [1] (setting [4]) turned out to be 79%; in test [2] it was 50%; in test [3] (human recombinant PDE2A) it was 100%; in test [3] it was 100%. Also, the IC50 is 2750 nM in test [1] (setting [5]), over 10000 nM in test [2], 51.3 nM in test [3] (setting [6]) and 51.3 nM in test [3] (setting [7]).
For the compound `Cc1nn(C)cc1C(=O)N1CC[C@@H](C)[C@H](c2cc(C(F)F)nc3ncnn23)C1` [Compound 198], the Emax in test [1] (setting [4]) was determined as 91%; in test [2], 35%; in test [3] (human recombinant PDE2A), 98%; in test [3], 98%. Further, the IC50 in test [1] (setting [5]) was 417 nM; in test [2] it was over 10000 nM; in test [3] (setting [6]), 5.62 nM; in test [3] (setting [7]), 5.62 nM.
Consider `O=C(c1ccc(C(F)(F)F)c(F)c1)N1[C@H]2CC[C@H](c3cc(C(F)F)nc4ncnn34)[C@@H]1CC2` [Compound 338], for which the figures for the Emax in test [1] (setting [8]), in test [2] and in test [3] were 70%, 62% and 99%, respectively. Moreover, the IC50 in test [1] (setting [9]) is 3090 nM; in test [2], 5500 nM; in test [3] (setting [7]), 91.2 nM.
Consider `Cc1cc([C@H]2CN(C(=O)c3ccc(C)c(C)n3)CC[C@@H]2C)n2ncnc2n1` [Compound 3b], for which the Emax in test [1] (setting [4]) was 19%; in test [2], 14%; in test [3], 64%. Besides, the IC50 in test [1] (setting [5]) was over 10000 nM; in test [2], over 10000 nM; in test [3] (hPDE2A pIC50), 5620 nM; in test [3] (hPDE2A pIC50, human recombinant PDE2A, 10 μM cGMP substrate), 5620 nM.
`Cc1oncc1C(=O)N1CC[C@@H](C)[C@H](c2cc(C(F)F)nc3ncnn23)C1` [Compound 260]: the Emax in test [1] (setting [4]) turned out to be 74%; in test [1] (setting [8]), 74%; in test [2], 23%; in test [3], 97%. Further, the IC50 in test [1] (setting [5]) was 2950 nM; in test [1] (setting [9]) it was 2950 nM; in test [2], over 10000 nM; in test [3] (setting [7]), 138 nM.
Consider `C[C@@H]1CCN(C(=O)c2cccc(C(F)(F)F)c2F)C[C@H]1c1cc(C(F)F)nc2ncnn12` [Compound 148], for which the Emax is 89% in test [1] (setting [4]), 67% in test [2], 101% in test [3] (human recombinant PDE2A) and 101% in test [3]. The IC50 is 912 nM in test [1] (setting [5]), 5620 nM in test [2], 38.9 nM in test [3] (setting [6]) and 38.9 nM in test [3] (setting [7]).
Consider `O=C(c1ccc2sccc2c1)N1[C@H]2CC[C@H](c3cc(C(F)F)nc4ncnn34)[C@@H]1CC2` [Compound 372], for which the Emax in test [1] (setting [8]) came out at 96%; in test [2], 90%; in test [3] it was 100%. Moreover, the IC50 was 251 nM in test [1] (setting [9]), 1350 nM in test [2] and 1.02 nM in test [3] (setting [7]).
Consider `C[C@@H]1CCN(C(=O)c2cncnc2)C[C@H]1c1cc(C(F)F)nc2ncnn12` [Compound 249], for which the Emax was found to be 45% in test [1] (setting [4]), 45% in test [1] (setting [8]), 10% in test [2] and 95% in test [3]. Further, the IC50 in test [1] (setting [5]) is over 10000 nM; in test [1] (setting [9]), over 10000 nM; in test [2], over 10000 nM; in test [3] (setting [7]), 372 nM.
Regarding `O=C(c1ccc(F)c(C(F)(F)F)c1)N1[C@H]2CC[C@H](c3cc(C(F)F)nc4ncnn34)[C@@H]1CC2` [Compound 357], the Emax came to 73% in test [1] (setting [8]), 34% in test [2] and 98% in test [3]. Further, the IC50 in test [1] (setting [9]) was 3390 nM; in test [2] it was over 10000 nM; in test [3] (setting [7]), 77.6 nM.
For the compound `Cc1cc([C@@H]2CN(C(=O)c3cc(C4CC4)ncc3C3CC3)CC[C@H]2C)n2ncnc2n1` [Compound 390], the Emax in test [1] (setting [8]) worked out at 99%; in test [2] it was 84%; in test [3], 98%. Further, the IC50 in test [1] (setting [9]) was 61.7 nM; in test [2], 2570 nM; in test [3] (setting [7]) it was 2.09 nM.
On to `C[C@@H]1CCN(C(=O)c2cnn(C)c2)C[C@H]1c1cc(C(F)F)nc2ncnn12` [Compound 177], for which the Emax in test [1] (setting [4]) stood at 93%; in test [2] it was 21%; in test [3] (human recombinant PDE2A) it was 99%; in test [3] it was 99%. Besides, the IC50 is 457 nM in test [1] (setting [5]), over 10000 nM in test [2], 9.55 nM in test [3] (setting [6]) and 9.55 nM in test [3] (setting [7]).
Turning to `C[C@@H]1CCN(C(=O)c2cccc(OC(F)(F)F)c2F)C[C@H]1c1cc(C(F)F)nc2ncnn12` [Compound 241], the maximal effect (Emax) in test [1] (setting [4]) was determined as 94%; in test [1] (setting [8]) it was 94%; in test [2] it was 88%; in test [3] (human recombinant PDE2A), 97%; in test [3], 97%. Also, the IC50 was 269 nM in test [1] (setting [5]); 269 nM in test [1] (setting [9]); 1740 nM in test [2]; 20.9 nM in test [3] (setting [6]); 20.9 nM in test [3] (setting [7]).
Consider `C[C@@H]1CCN(C(=O)c2cncn2C)C[C@H]1c1cc(C(F)F)nc2ncnn12` [Compound 164], for which the Emax in test [1] (setting [4]) amounted to 82%; in test [2] it was 22%; in test [3] (human recombinant PDE2A), 100%; in test [3], 100%. The IC50 is 1950 nM in test [1] (setting [5]), over 10000 nM in test [2], 89.1 nM in test [3] (setting [6]) and 89.1 nM in test [3] (setting [7]).
With `C[C@@H]1CCN(C(=O)c2ccn(C)c2)C[C@H]1c1cc(C(F)F)nc2ncnn12` [Compound 67], the Emax in test [1] (setting [4]) was 94%; in test [2], 49%; in test [3] (human recombinant PDE2A), 99%; in test [3], 99%. In addition, the IC50 in test [1] (setting [5]) was 288 nM; in test [2], over 10000 nM; in test [3] (setting [6]) it was 2.57 nM; in test [3] (setting [7]), 2.57 nM.
Turning to `Cc1cc(C(=O)N2[C@H]3CC[C@@H]2[C@H](c2cc(C(F)F)nc4ncnn24)CC3)cc(C2CC2)n1` [Compound 274], the maximum response (Emax) stood at 63% in test [1] (setting [4]), 63% in test [1] (setting [8]), 7% in test [2] and 97% in test [3]. Further, the IC50 is 6030 nM in test [1] (setting [5]), 6030 nM in test [1] (setting [9]), over 10000 nM in test [2] and 288 nM in test [3] (setting [7]).
With `COc1cc(C(=O)N2CC[C@@H](C)[C@H](c3cc(C(F)F)nc4ncnn34)C2)cc(C2CC2)n1` [Compound 113], the Emax in test [1] (setting [4]) was 99%; in test [2], 88%; in test [3] (human recombinant PDE2A) it was 99%; in test [3], 99%. The IC50 in test [1] (setting [5]) is 38 nM; in test [2] it was 1120 nM; in test [3] (setting [6]), 1 nM; in test [3] (setting [7]), 1 nM.

Values taken from US10947242B2, “[1,2,4]triazolo[1,5and#8208;A]pyrimidine compounds as PDE2 inhibitors” (Janssen Pharmaceutica NV, priority 2016, dated 2021).
